Experimental findings from patent EP4667458A1 (Kanaph Therapeutics Inc., priority 2023, dated 2024) are described below.

For orientation: IC50 means the concentration needed to halve the response being measured.

Some results are limits rather than exact numbers.

The first test addresses T1, SOS1 (Homo sapiens, UniProt Q07889).
T1 construct: adding equal amounts of HIS-SOS1cat (160 nM; Cytoskeleton, US); His; purchased Cytoskeleton, US
T1 sequence (Q07889 564-1049 limits assumed): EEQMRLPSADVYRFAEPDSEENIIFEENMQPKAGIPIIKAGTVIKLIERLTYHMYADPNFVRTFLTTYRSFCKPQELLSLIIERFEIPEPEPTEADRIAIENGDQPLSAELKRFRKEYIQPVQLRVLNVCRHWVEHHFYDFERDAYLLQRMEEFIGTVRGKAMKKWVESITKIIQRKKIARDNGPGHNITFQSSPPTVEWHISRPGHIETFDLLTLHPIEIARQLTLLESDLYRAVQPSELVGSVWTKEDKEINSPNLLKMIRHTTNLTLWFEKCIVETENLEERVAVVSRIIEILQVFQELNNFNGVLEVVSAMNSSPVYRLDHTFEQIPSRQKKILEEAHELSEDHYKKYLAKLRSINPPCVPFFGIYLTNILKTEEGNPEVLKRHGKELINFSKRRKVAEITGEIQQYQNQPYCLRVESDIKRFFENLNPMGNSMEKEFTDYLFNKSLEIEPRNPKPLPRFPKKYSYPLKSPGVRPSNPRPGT
As to the kind of experiment: SOS-catalyzed nucleotide exchange assay (HTRF, SOS1-mediated GTP loading of KRAS G12D). The format is biochemical. As to conditions: GST-KRAS G12D, HIS-SOS1cat, EDA-GTP-DY-647P1; compound 128 pM to 10 µM; read-out: SOS-catalyzed nucleotide exchange assay (IC50 range, Grade). As for the experimental part: SOS1 activity was measured by SOS1-mediated GTP loading quantification of KRAS^G12D. GTP-loaded KRAS^G12D was detected by HTRF (Homogeneous Time Resolved Fluorescence) using anti-GST terbium (Cisbio, France) as a donor and a fluorescence GTP analogue (EDA-GTP-DY-647P1, [DY-647P1-labeled 2'/3'-O-(2-aminoethyl-carbamoyl)guanosine-5'-triphosphate (Jena bioscience, Germany)]) as an acceptor.
Assay buffer was composed of 10 mM HEPES pH 7.4, 150 mM NaCl, 5 mM MgCl2, 1 mM DTT, 0.05% BSA Fraction V pH 7.0 (Sigma) and 0.0025% (v/v) Igepal (Sigma). KRAS^G12D working solution was prepared by adding equal amounts of GST-KRAS^G12D (100 nM) and anti-GST-terbium (2 nM; Cisbio, France) to the assay buffer and incubating on ice for 10 minutes. SOS1cat working solution was prepared by adding equal amounts of HIS-SOS1cat (160 nM; Cytoskeleton, US) and EDA-GTP-DY-647P1 (200 nM; Jena bioscience, Germany) to the assay buffer. Control solution was prepared by adding equal volumes of EDA-GTP-DY-647P1 and the assay buffer for normalization control to exclude GEF-independent GTP loading and background signals. In order to induce a reaction, 5 µL of the SOS1cat working solution or the control solution was injected into each well. 5 µL of a compound having various concentrations from 128 pM to 10 µM was added to wells containing the SOS1cat working solution and incubated at room temperature for 10 minutes to bind to SOS1.
10 µL of the KRAS^G12D solution was added to each well and incubated for 30 minutes at room temperature while shaking. HTRF was measured using a Thermo Varioskan (excitation 334 nm, emission 665 nm). The IC50 of each inhibitor was analyzed using Graphad Prism.
The SOS1 inhibitory activity of the Example compounds measured by the above method was evaluated based on the following criteria, and the results are shown in Table 29.
Take “1-(1-acetylpiperidin-4-yl)-N-[(1R)-1-[3-amino-5-(trifluoromethyl)phenyl]ethyl]-6-oxo-1,6-dihydropyridazine-3-carboxamide [Example 118]”: the half-inhibitory concentration (IC50) lay in the range of 1000 to 10000 nM.
`C[C@@H](NC(=O)c1ccc(=O)n(-c2ccccc2)n1)c1cccc(Cl)c1` [Example 1, N-[(1R)-1-(3-chlorophenyl)ethyl]-6-oxo-1-phenyl-pyridazine-3-carboxamide]: the concentration for half-maximal inhibition (IC50) lay within 1000 to 10000 nM.
Same read-out and setting: for `C[C@@H](NC(=O)c1ccc(=O)n(-c2ccccc2)n1)c1cccc(Br)c1` [Example 2, N-[(1R)-1-(3-bromophenyl)ethyl]-6-oxo-1-phenyl-pyridazine-3-carboxamide] the value was 1000 to 10000 nM; for `Cc1cccc([C@@H](C)NC(=O)c2ccc(=O)n(-c3ccccc3)n2)c1` [Example 3, (R)-6-oxo-1-phenyl-N-(1-(m-tolyl)ethyl)-1,6-dihydropyridazine-3-carboxamide], greater than 10000 nM; for `C[C@@H](NC(=O)c1ccc(=O)n(-c2ccccc2)n1)c1cccc(C#N)c1` [Example 4, (R)-N-(1-(3-cyanophenyl)ethyl)-6-oxo-1-phenyl-1,6-dihydropyridazine-3-carboxamide], 1000 to 10000 nM.
Same read-out and setting: the same measure for `C[C@@H](NC(=O)c1ccc(=O)n(-c2ccccc2)n1)c1ccc(Cl)cc1` [Example 5, (R)-N-(1-(4-chlorophenyl)ethyl)-6-oxo-1-phenyl-1,6-dihydropyridazine-3-carboxamide]: greater than 10000 nM.
Same read-out and setting: the same measure for `C[C@@H](NC(=O)c1ccc(=O)n(-c2ccccc2)n1)c1ccc(Br)cc1` [Example 6, (R)-N-(1-(4-bromophenyl)ethyl)-6-oxo-1-phenyl-1,6-dihydropyridazine-3-carboxamide]: greater than 10000 nM.
`Cc1ccc([C@@H](C)NC(=O)c2ccc(=O)n(-c3ccccc3)n2)cc1` [Example 7, (R)-6-oxo-1-phenyl-N-(1-(p-tolyl)ethyl)-1,6-dihydropyridazine-3-carboxamide]: the concentration for half-maximal inhibition (IC50) was greater than 10000 nM.
For the molecule `C[C@@H](NC(=O)c1ccc(=O)n(-c2ccccc2)n1)c1ccc2ccccc2c1` [Example 8, N-[(1R)-1-(2-naphthyl)ethyl]-6-oxo-1-phenyl-pyridazine-3-carboxamide], the IC50 is 1000 to 10000 nM.
The same measure, in the same setting: for `C[C@@H](NC(=O)c1ccc(=O)n(-c2ccccc2)n1)c1cccc2ccccc12` [Example 9, N-[(1R)-1-(1-naphthyl)ethyl]-6-oxo-1-phenyl-pyridazine-3-carboxamide] the value was 1000 to 10000 nM; for `C[C@@H](NC(=O)c1ccc(=O)n(-c2ccccc2)n1)c1cccc(OC(F)(F)F)c1` [Example 10, 6-oxo-1-phenyl-N-[(1R)-1-[3-(trifluoromethoxy)phenyl]ethyl]pyridazine-3-carboxamide], 1000 to 10000 nM.

The next test addresses T2, KRAS^G12C::SOS1 (Homo sapiens, UniProt Q07889).
T2 sequence (Q07889 1-1333): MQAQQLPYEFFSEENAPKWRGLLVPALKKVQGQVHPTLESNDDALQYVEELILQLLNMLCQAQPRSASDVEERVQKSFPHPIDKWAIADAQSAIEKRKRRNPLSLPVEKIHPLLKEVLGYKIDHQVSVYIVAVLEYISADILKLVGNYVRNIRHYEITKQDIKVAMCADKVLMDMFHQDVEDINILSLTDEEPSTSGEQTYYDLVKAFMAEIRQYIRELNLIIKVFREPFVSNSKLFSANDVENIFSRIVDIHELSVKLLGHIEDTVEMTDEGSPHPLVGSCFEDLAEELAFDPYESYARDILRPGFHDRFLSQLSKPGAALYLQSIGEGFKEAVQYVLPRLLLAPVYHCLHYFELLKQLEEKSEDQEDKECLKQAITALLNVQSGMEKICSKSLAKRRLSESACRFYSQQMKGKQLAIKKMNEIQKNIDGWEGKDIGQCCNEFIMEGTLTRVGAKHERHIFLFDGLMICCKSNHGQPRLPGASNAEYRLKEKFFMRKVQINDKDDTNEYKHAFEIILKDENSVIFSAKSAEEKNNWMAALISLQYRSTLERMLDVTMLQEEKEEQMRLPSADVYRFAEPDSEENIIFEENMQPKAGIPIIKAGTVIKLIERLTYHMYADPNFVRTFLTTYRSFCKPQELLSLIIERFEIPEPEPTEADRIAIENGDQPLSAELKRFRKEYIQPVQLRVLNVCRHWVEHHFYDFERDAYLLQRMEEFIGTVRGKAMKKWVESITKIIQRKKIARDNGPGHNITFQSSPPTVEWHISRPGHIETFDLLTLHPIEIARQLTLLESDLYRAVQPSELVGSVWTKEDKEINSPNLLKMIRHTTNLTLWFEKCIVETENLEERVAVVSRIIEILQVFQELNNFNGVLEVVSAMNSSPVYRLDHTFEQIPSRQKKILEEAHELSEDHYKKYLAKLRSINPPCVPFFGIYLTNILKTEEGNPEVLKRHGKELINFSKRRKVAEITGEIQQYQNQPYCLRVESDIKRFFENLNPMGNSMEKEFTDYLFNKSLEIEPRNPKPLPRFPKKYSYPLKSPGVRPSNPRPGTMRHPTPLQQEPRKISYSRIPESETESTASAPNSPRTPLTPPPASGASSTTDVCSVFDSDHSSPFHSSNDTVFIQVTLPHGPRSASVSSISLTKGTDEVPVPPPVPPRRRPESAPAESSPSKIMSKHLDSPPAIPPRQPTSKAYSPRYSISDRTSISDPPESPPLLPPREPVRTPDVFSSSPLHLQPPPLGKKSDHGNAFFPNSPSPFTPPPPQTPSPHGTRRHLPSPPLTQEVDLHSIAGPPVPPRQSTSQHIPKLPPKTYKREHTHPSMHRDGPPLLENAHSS
Put plainly: KRAS G12C::SOS1 protein-protein interaction (PPI) inhibition assay (HTRF binding kit).
Conditions: not given
In general terms: Time-resolved FRET reads energy transfer from a long-lived donor to a nearby acceptor.
Take `CNCc1ccc(Cl)cc1-c1ccc([C@@H](C)NC(=O)c2ccc(=O)n(-c3cnn(CCOC)c3)n2)s1` [Example 406]: the IC50 is less than 1000 nM.
Same read-out and setting: the same measure for `CNCc1ccc(F)cc1-c1ccc([C@@H](C)NC(=O)c2ccc(=O)n(-c3cccnc3OC)n2)s1` [Example 407]: less than 1000 nM; for `CNCc1c(F)cccc1-c1ccc([C@@H](C)NC(=O)c2ccc(=O)n(-c3cccnc3F)n2)s1` [Example 409]: less than 1000 nM; for `CNCc1ccc(C#N)cc1-c1ccc([C@@H](C)NC(=O)c2ccc(=O)n(-c3ccccc3F)n2)s1` [Example 410]: less than 1000 nM.
Still for that read-out and setting: the same measure for `CNCc1ccc(Cl)cc1-c1ccc([C@@H](C)NC(=O)c2ccc(=O)n(C3CCOCC3)n2)s1` [Example 411]: less than 1000 nM.
On the same count and under the same terms, for `CNCc1ccccc1-c1ccc([C@@H](C)NC(=O)c2ccc(=O)n(-c3cccnc3F)n2)s1` [Example 412, 1-(2-fluoropyridin-3-yl)-N-[(1R)-1-(5-{2-[(methylamino)methyl]phenyl}thiophen-2-yl)ethyl]-6-oxo-1,6-dihydropyridazine-3-carboxamide] the value was less than 1000 nM.
As for `CNCc1ccc(F)cc1-c1ccc([C@@H](C)NC(=O)c2ccc(=O)n(-c3cccc(-c4cnnn4C)c3)n2)s1` [Example 413], the IC50 is less than 1000 nM.
For `C[C@@H](NC(=O)c1ccc(=O)n(-c2cccnc2F)n1)c1ccc(-c2cc(F)ccc2CCN)s1` [Example 414, N-[(1R)-1-[5-[2-(2-aminoethyl)-5-fluorophenyl]-2-thienyl]ethyl]-1-(2-fluoro-3-pyridyl)-6-oxopyridazine-3-carboxamide], the IC50 is less than 1000 nM.
Molecule `C[C@@H](NC(=O)c1ccc(=O)n(-c2cccnc2F)n1)c1ccc(-c2cc(F)ccc2CC#N)s1` [Example 415, N-[(1R)-1-[5-[2-(cyanomethyl)-5-fluorophenyl]-2-thienyl]ethyl]-1-(2-fluoro-3-pyridyl)-6-oxo-pyridazine-3-carboxamide] came in with an IC50 of less than 1000 nM.

The same test, now with this note: read-out: KRAS ^G12C::SOS1 PPI assay (IC50 range, Grade); maximum concentration 3 µM, 8 concentrations, three replicates.
As for `CNCc1ccc(F)cc1-c1ccc([C@@H](C)NC(=O)c2ccc(=O)n(-c3cccnc3O)n2)s1` [Example 408], the IC50 is less than 1000 nM.
“N-[(1R)-1-[3-amino-5-(trifluoromethyl)phenyl]ethyl]-1-(3-isoxazol-4-ylphenyl)-6-oxo-pyridazine-3-carboxamide [Example 322]”: the IC50 was less than 1000 nM.
Same read-out and setting: for “N-[(1R)-1-[3-amino-5-(trifluoromethyl)phenyl]ethyl]-1-(4-fluorophenyl)-6-oxo-pyridazine-3-carboxamide [Example 172]” the value was less than 1000 nM; for “N-[(1R)-1-[3-amino-5-(trifluoromethyl)phenyl]ethyl]-6-oxo-1-(3-phenylphenyl)pyridazine-3-carboxamide [Example 212]”, 1000 to 10000 nM; for “N-[(1R)-1-[3-amino-5-(trifluoromethyl)phenyl]ethyl]-6-oxo-1-[3-(4-pyridyl)phenyl]pyridazine-3-carboxamide [Example 346]”, less than 1000 nM.
